Test results: patent US9303076B2, “Cell-penetrating peptides and uses thereof” (Hoffmann-La Roche Inc., priority 2010, dated 2016)

Tests used:
[1] = test system: MCF-7 human breast cancer cells; experiment: cell viability/apoptosis after 24 h exposure to pro-apoptotic peptides and CPP fusions; assay type: cell-based; conditions: MCF-7 cells; for cell viability / induction of apoptosis: various concentrations; for cell viability / cytotoxicity due to induction of apoptosis: 20 μM
Description: (§1) MCF-7 human breast cancer cells were incubated for 24 h in the presence of various concentrations of NRTN (squares), Nur (circles), and NurNRTN (triangles) peptides. The respective amino acid sequences are given in the bottom panel. The experimental approach for assessing cell viability (and thus induction of apoptosis) was the same as in FIG. 3.
as §1, with “4E-BP1 (circles), TAT4E-BP1” for “NRTN”, “(squares),” for “(squares), Nur (circles),”, “NRTN4E-BP1” for “NurNRTN”, “peptides (top panel). […]” for “peptides.”
Luminescence was analyzed in an InfiniteF200 luminescence reader.
Then, the cells were treated with a luminogenic peptide substrate in order to measure dead-cell protease activity, which is released from cells that have lost membrane integrity. […] The luminescence of this assay therefore represents dead cells. The 96 well plates were then analyzed in an InfiniteF200 luminescence reader.
Despite its proven ability to convert BCL-2 into a pro-apoptotic molecule, addition of the latter peptide (i.e. “Nor/Nur”; SEQ ID NO: 72) to cancer cells, even in high concentrations, is not sufficient to induce apoptosis, as the cellular target protein is located in the cytoplasm, but the peptide per se cannot effectively penetrate through the cell membrane to reach the target. In brief, MCF-7 breast cancer cells were incubated in the presence of this peptide for 24 h.
(§2) Subsequently, it was evaluated whether the NurNRTN fusion peptide is capable of penetrating cellular membranes and thereby induces pro-apoptotic activity within cells. MCF-7 human breast cancer cells were used as a model. The experimental approach was as described above (cf. Example 1). […] This effect was dose dependent: cytotoxicity increased with increasing concentrations of peptide.
as §2, with “NRTN4E-BP1” for “NurNRTN”

[2] = test system: human Aha1 mRNA; experiment: siRNA transfection screening (siAha1 vs siGL3 control, bDNA assay of Aha1/GAPDH mRNA); assay type: cell-based
Description: For the quantification of cellular mRNA levels bDNA (branched DNA) assays were performed which enable the detection of individual mRNA levels. To this end, a defined number of the cells to be analyzed was seeded into 96-well plates and allowed to attach over night. On the next day, the cells were transfected with siRNA.
After further 24 hours, the mRNA species were quantified using the QuantiGene Plex 2.0 assay kit according to the manufacturers instructions (Affymetrix Inc., Santa Clara, Calif., USA). In brief, cell lysates were transferred to a capture plate in the presence of a gene-specific probe set and incubated at 53° C. over night. After washing, the wells were sequentially incubated at 53° C. with an amplifier agent and an alkaline phosphatase (AP)-linked label probe with a washing step in between. Subsequently, the luminescent AP substrate dioxitane was added and incubated for 30 min at 53° C. Luminescence was assayed using an InfiniteF200 luminescence reader (Tecan Austria GmbH, Groding, Austria).
In order to analyze the potential CPPs for their ability to transfect siRNA into mammalian cells an increasing peptide concentration (from 1 μM to 20 μM) was employed along with a constant siRNA concentration (100 nM). This range of peptide concentrations was used as it had been shown that positively charged peptides such as TAT are internalized into cells in ranges up to 10 μM and remain in intracellular membrane compartments without significant egress into the cytosol (Duchardt, F. et al. (2007) Traffic 8, 848-866). […] A concentration of 10 nM siRNA is in the saturation range as determined in control experiments using the DharmaFECT transfection reagent (Dharmacon, Inc., Lafayette, Colo., USA; data not shown).
The siRNA oligonucleotides employed were directed against human Aha1 mRNA (Panaretou, B. et al. (2002) Mol. Cell 10, 1307-1318) or against luciferase mRNA as a control.
Complexes of siRNA and the respective peptides were formed in OptiMEM medium and incubated for 15 minutes at room temperature. The cells were incubated in the presence of the complexes for three hours in OptiMEM. After washing, the cells were incubated for further 21 or 45 hours in normal growth medium. Thereafter, the levels of Aha1 mRNA and a reference mRNA (i.e. GAPDH mRNA) were measured by means of a bDNA assay. These assays were performed with cells that were transfected with siAHA1 and with a control siRNA (siGL3, luciferase), respectively.
As a measure for specific RNAi, the reduction of Aha1 mRNA levels relative to GAPDH mRNA levels was compared in siAHA1-transfected cells and siGL3-transfected cells. Specific siRNA mediated transfection causes a reduction in Aha1/GAPDH mRNA values in siAhA1-compared to siGL3-transfected cells. FIG. 3 depicts the screening readout of these assays: the Aha1/GAPDH mRNA values of non-transfected control cells were set to 100% (for each assay), and the Aha1/GAPDH mRNA values of siAha1- or siGL3-transfected cells were expressed relative to that. For this normalized data set, the differences between the respective Aha1/GAPDH mRNA levels of siAha1- and siGL3-transfected cells were determined. Specific peptides caused a significant reduction in siAha1 transfection without reducing siGL3 transfections, which results in positive difference values. The more pronounced these values are, the more specific RNAi is observed (cf. FIG. 3).

[3] = test system: siRNA duplex; experiment: gel-shift assay of peptide/siRNA complex formation; assay type: binding; conditions: ethidium bromide staining
Description: Gel-shift assays were performed by mixing […] siRNA duplex with the respective peptides in a given molar ratio in water. The complexes were formed for 1 hour at 37° C. and analyzed on a 2.5% agarose gel with ethidium bromide (run: 40 minutes at 125 V). For proteinase K treatment, 1 μl proteinase K was added to a standard reaction as indicated above.
Mechanisms that may explain transfection functionalities of charged peptides such as TAT or protamine include the formation of complexes between positively charged peptides and negatively charged nucleic acids. Such complexes enable peptide-mediated membrane-interacting and/or endosome escape functionalities to transfer the complexed nucleic acids into the cytosol of cells (Law, M. et al. (2008) Biotechnol. Prog. 24, 957-963) In order to address whether the above mechanism may apply to the NTRN-derived peptide as well gel-shift assays were performed (cf. FIG. 8). To this end, siRNA was co-incubated with increasing concentrations of peptide, followed by analyses of their migration pattern via gel electrophoresis.

[4] = test system: MCF7 cells; experiment: FACS analysis of internalization of FITC-labeled peptides; assay type: cell-based, human; conditions: FITC-labeled peptide 1, 5, 10 μM; 3 hours at 37° C.; proteinase K treated
Description: For FACS analysis, MCF7 cells (ATCC number HTB-22) were detached by 15 min incubation in accutase (an enzyme solution having proteolytic and collagenolytic activities; commercially available from various suppliers). After washing in FACS buffer (PBS containing 5% FCS), the cells were seeded in a 96 well, rounded bottom multi-well plate (Cat. No. 3799, Corning Inc., Corning, N.Y. USA) in a final density of 3×10^5 cells/ml and used immediately. The cells were incubated in the respective presence of 1 μM, 5 μM and 10 μM FITC-labeled peptides in OptiMEM medium for 3 hours at 37° C. Afterwards, the cells were washed in FACS buffer and incubated in proteinase K (0.02 mg/ml) containing buffer for 30 minutes at 37° C. The cells were washed twice and analyzed with the FACSCanto II (BD Biosciences; San Jose, Calif., USA) using the FITC channel.
For determining the internalization behavior of the CPPs identified in the screening procedures FITC-labeled derivates of said peptides (at 1 μM, 5 μM, and 10 μM, respectively) were analyzed by means of FACS. The following peptides were used: NRTN as a transfecting peptide, WNT16 as a non-transfecting peptide, FALL as a toxic peptide and TAT as a reference (positive control) (cf. FIG. 12). MCF7 cells were incubated in the presence of the fluorescent peptide derivatives for 3 hours at 37° C. in OptiMEM. Subsequently, the cells were treated with proteinase K for 30 minutes at 37° C. to remove surface bound peptides, and thus to ensure the monitoring only of internalized peptides. The cells were then washed in PBS and analyzed by FACS.

[5] = test system: MCF7 cells; experiment: growth inhibition/toxicity (CellTiter-Glo viability, GAPDH mRNA levels); conditions: MCF7 cells; peptide 1 μM to 20 μM
Description: MCF7 cells were seeded at a density of 15.000 cells per well in 96 well plates. The cells were incubated for 24 hours at 37° C., 5% CO2 and 85% humidity in RPMI 1640 medium supplemented with 10% FCS (fetal calf serum) and L-glutamine. For functional assays, the cells were washed in OptiMEM medium and RPMI 1640 was replaced with OptiMEM (all reagents were purchased from Invitrogen Corporation, Carlsbad, Calif., USA). Complexes of siRNAs and peptides were formed by incubation of 100 nM siRNA with the indicated peptide concentrations in OptiMEM for 30 minutes at room temperature. The complexes were added to the cells and incubated for 3 hours. Subsequently, OptiMEM was replaced with normal RPMI 1640 growth medium. The cells were incubated for further 21 hours for generating bDNA lysates, and for further 45 hours for performing CellTiter-Glo or CytoTox-Glo assays (cf. below).
In order to measure the number of living cells the CellTiter-Glo Luminescent Cell Viability Assay (Promega Corporation, Madison, Wis., USA) was used according to the protocol of the manufacturer. The cells were incubated for 48 hours in the presence of peptides and siRNAs. Subsequently, the cells are lysed, and a luminescent signal proportional to the amount of ATP present is generated which, in turn, is proportional to the number of living cells present. Luminescence was analyzed in an InfiniteF200 luminescence reader.
Based on this observation, GAPDH mRNA levels were used as a general readout for toxicity: an average measurement of 100% GAPDH mRNA relative to the medium control was considered as non-toxic, values between 99% and 70% as moderate toxic, and values of less than 70% as toxic (cf. FIG. 3).
Similarly, peptides resulting in GAPDH mRNA values >70% were classified as “nontoxic”, whereas peptides that caused a reduction of GAPDH mRNA to lesser values were termed “toxic”.

GAAEAAARVYDLGLRRLRQRRRLRRERVRAGTRIIGDGKFGMECRNSPVT (inactive NRTN4E-BP1 peptide sequence) [NRTNinact4E-BP1]
cell viability / induction of apoptosis [1]: inactive

GAAEAAARVYDLGLRRLRQRRRLRRERVRAGTRIIYDRKFLMECRNSPVT [NRTN4E-BP1]
potency compared to TAT-fused counterpart [1]: significantly higher potency
cell viability / induction of apoptosis [1]: remarked cytotoxicity

GRKKRRQRRRPPQ (Human immunodeficiency virus 1; TAT peptide sequence) [reference compound]
difference of Aha1/GAPDH for luciferase siRNA and Aha1/GAPDH for Aha1 siRNA (Transfection) ([2]; 20 μM, threshold value of FIG. 3): 18%
complex formation with siRNA [3]: forms complexes with the siRNA molecules

GTRIIYDRKFLMECRNSPVT [4E-BP1, reference compound]
cell viability / induction of apoptosis [1]: No reduction in cell viability or induction of apoptosis was observed

FALLGDFFRKSKEKIGKEFKRIVQRIKDFLRNLVPRTES (FALL39 Var.1 peptide sequence; listed as Homo sapiens)
specific reduction of Aha1 mRNA at lower concentrations ([2]; 5 μM peptide): clear and specific reduction of Aha1 mRNA
specific Aha1 mRNA reduction (relative to GAPDH mRNA) where toxicity is pronounced ([2]; 10 μM or higher): only inconclusive evidence for a specific Aha1 mRNA reduction
transfection efficacy compared with TAT / control peptides ([2]; NRTN: at lower non-toxic concentrations): inferior transfection efficacy than TAT
internalization into cells (FACS, FITC channel) [4]: strong accumulation
cell viability / growth inhibition / toxicity (CellTiter-Glo, GAPDH mRNA levels) [5]: significant toxicity

CC[C@H](C)[C@H](NC(=O)[C@H](CCCNC(=N)N)NC(=O)[C@@H](NC(=O)CNC(=O)[C@H](CCCNC(=N)N)NC(=O)[C@H](CCCNC(=N)N)NC(=O)[C@H](CCCNC(=N)N)NC(=O)[C@H](CCC(N)=O)NC(=O)[C@H](CCCNC(=N)N)NC(=O)[C@H](CCCNC(=N)N)NC(=O)[C@H](CCCCN)NC(=O)[C@H](CCCCN)NC(=O)[C@H](CCCNC(=N)N)NC(=O)CNC(=O)[C@H](Cc1ccc(O)cc1)NC(=O)CCOCCOCCOCCNC(=O)[C@@H](N)CS)[C@@H](C)O)C(=O)N[C@H](C(=O)N[C@@H](Cc1ccc(O)cc1)C(=O)N[C@@H](CC(=O)O)C(=O)N[C@@H](CCCNC(=N)N)C(=O)N[C@@H](CCCCN)C(=O)N[C@@H](Cc1ccccc1)C(=O)N[C@@H](CC(C)C)C(=O)N[C@@H](CCSC)C(=O)N[C@@H](CCC(=O)O)C(=O)N[C@@H](CS)C(=O)N[C@@H](CCCNC(=N)N)C(=O)N[C@@H](CC(N)=O)C(=O)N[C@@H](CO)C(=O)N1CCC[C@H]1C(=O)N[C@H](C(=O)N[C@H](C(=O)O)[C@@H](C)O)C(C)C)[C@@H](C)CC [TAT4E-BP1, reference compound]
cell viability / cytotoxicity due to induction of apoptosis [1]: clear evidence for reduction in cell viability and cytotoxicity

CC[C@H](C)[C@H](NC(=O)[C@H](CCCNC(=N)N)NC(=O)[C@@H](NC(=O)CNC(=O)[C@H](CCCNC(=N)N)NC(=O)[C@H](CCCNC(=N)N)NC(=O)[C@H](CCCNC(=N)N)NC(=O)[C@H](CCC(N)=O)NC(=O)[C@H](CCCNC(=N)N)NC(=O)[C@H](CCCNC(=N)N)NC(=O)[C@H](CCCCN)NC(=O)[C@H](CCCCN)NC(=O)[C@H](CCCNC(=N)N)NC(=O)CNC(=O)[C@H](Cc1ccc(O)cc1)NC(=O)CCOCCOCCOCCNC(=O)[C@@H](N)CS)[C@@H](C)O)C(=O)N[C@H](C(=O)NCC(=O)N[C@@H](CC(=O)O)C(=O)NCC(=O)N[C@@H](CCCCN)C(=O)N[C@@H](Cc1ccccc1)C(=O)NCC(=O)N[C@@H](CCSC)C(=O)N[C@@H](CCC(=O)O)C(=O)N[C@@H](CS)C(=O)N[C@@H](CCCNC(=N)N)C(=O)N[C@@H](CC(N)=O)C(=O)N[C@@H](CO)C(=O)N1CCC[C@H]1C(=O)N[C@H](C(=O)N[C@H](C(=O)O)[C@@H](C)O)C(C)C)[C@@H](C)CC [TATinact4E-BP1, reference compound]
cell viability / cytotoxicity due to induction of apoptosis [1]: completely inactive

PROK2: candidate peptide displaying the highest similarity with TAT (LTRKNNFGNGRQERRKRKRSKRKKEVPFFG; PROK2 peptide sequence; listed as Homo sapiens)
siRNA transfection activity (specific Aha1 mRNA reduction relative to GAPDH mRNA) ([2]; MCF7 cells, 100 nM siRNA, peptide 1 μM to 20 μM): did not show detectable transfection activity

FSRSLHSLLVDL (C-terminal Nor1 peptide sequence; listed as Homo sapiens) [Nor/Nur, reference compound]
cell viability / induction of apoptosis [1]: No reduction in cell viability or induction of apoptosis was observed
